Source: patent US10941137B2, “Difluoromethyl-phenyl triazoles” (Boehringer Ingelheim International GmbH, priority 2018, dated 2021)

Legend:
[1] = target: T1, α5β2γ2 GABAA receptor (Homo sapiens, UniProt P18507+P31644); experiment: Assay B: modulation of α5β2γ2 GABAA receptor, two-electrode voltage clamp in oocytes; assay type: cell-based; settings: for EC50: oocytes, TEVC, co-application with GABA 0.5 μM (EC5-20), read-out: Assay B: GABAA α5β3γ2 EC50
T1 sequence (P31644 32-462): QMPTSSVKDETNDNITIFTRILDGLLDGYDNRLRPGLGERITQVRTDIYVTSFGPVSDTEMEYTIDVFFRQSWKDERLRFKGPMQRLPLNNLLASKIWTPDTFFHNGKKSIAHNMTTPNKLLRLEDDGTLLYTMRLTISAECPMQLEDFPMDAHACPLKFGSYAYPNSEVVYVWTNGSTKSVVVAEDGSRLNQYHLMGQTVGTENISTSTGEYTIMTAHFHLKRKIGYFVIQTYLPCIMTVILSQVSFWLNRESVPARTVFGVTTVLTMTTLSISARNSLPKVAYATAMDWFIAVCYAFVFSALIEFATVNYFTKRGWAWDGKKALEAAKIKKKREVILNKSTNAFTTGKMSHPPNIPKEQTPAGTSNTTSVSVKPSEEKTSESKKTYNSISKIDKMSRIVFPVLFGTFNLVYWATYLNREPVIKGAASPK
T1 sequence (P18507 40-376 limits assumed): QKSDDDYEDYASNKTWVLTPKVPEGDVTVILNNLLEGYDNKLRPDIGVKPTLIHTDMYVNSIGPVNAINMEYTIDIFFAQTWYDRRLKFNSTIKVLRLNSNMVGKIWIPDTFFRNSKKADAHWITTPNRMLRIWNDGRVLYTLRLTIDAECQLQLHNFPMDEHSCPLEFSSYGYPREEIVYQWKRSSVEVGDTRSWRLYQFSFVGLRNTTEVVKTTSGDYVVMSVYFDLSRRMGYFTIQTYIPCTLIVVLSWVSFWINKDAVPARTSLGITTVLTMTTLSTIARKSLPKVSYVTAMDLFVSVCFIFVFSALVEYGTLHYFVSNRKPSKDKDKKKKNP
Protocol: Assay B: In vitro evaluation of modulation of α5β2γ2 GABAA receptor.
Modulatory efficacy of compounds of formula (I) is determined electrophysiological recordings in oocytes using the two-electrode voltage clamp (TEVC) technique. Oocytes are injected with cRNA for human GABAA receptor subunits α5, β2 and γ2 in a 3:1:3 ratio and modulatory efficacy is evaluated by co-applications with a submaximal EC5-20 GABA concentration (0.5 μM) termed GABA control. As a standard, the compounds are tested in five concentrations (3.16, 0.316, 0.0316, 0.00316 and 0.000316 μM) on each oocyte starting with the lowest concentration. Background subtracted peak current amplitudes are normalized to the respective GABA control current, converted to % change and depicted +/−S.E.M. as a function of increasing compound concentrations. Plotted datapoints are fitted to the empirical Hill equation using non-linear regression. 95% confidence intervals for maximal efficacy (Bottom) and potency (Log EC50) are derived from this fitting routine.

[2] = system: human MDR1 P-gp; experiment: Efflux in MDCK cells transfected with the human MDR1 gene (MDCK-PGP permeability); assay type: in vitro ADME, canine; settings: dog, pH 7.4, 37° C.; for efflux ratio: PEBA/PEAB; for Papp A→B: apical-to-basal apparent permeability (PEAB)
Protocol: Assessment of Efflux in Madin-Darby Canine Kidney (MDCK) Cells Transfected with the 30 Human MDR1 Gene to Assess Brain Penetration (Drug Metabolism and Disposition February 2008, 36 (2) 268-275; DOI: https://doi.org/10.1124/dmd.107.017434) Apparent permeability coefficients (PE) of the compounds across the MDCK-MDR1 cell monolayers are measured (pH 7.4, 37° C.) in apical-to-basal (AB) and basal-to-apical (BA) transport direction. AB permeability (PEAB) represents drug absorption from the blood into the 35 brain and BA permeability (PEBA) drug efflux from the brain back into the blood via both passive permeability as well as active transport mechanisms mediated by efflux and uptake transporters that are expressed on the MDCK-MDR1 cells, predominantly by the overexpressed human MDR1 P-gp. The compounds are assigned to permeability/absorption classes by comparison of the AB permeabilities with the AB permeabilities of reference compounds with known in vitro permeability and oral absorption in the human. Identical or similar permeabilities in both transport directions indicate passive permeation, vectorial permeability points to additional active transport mechanisms. Higher PEBA than PEAB indicates the involvement of active efflux mediated by MDR1 P-gp. Active transport is concentration-dependently saturable.
MDCK-MDR1 cells (1-2×10e5 cells/1 cm2 area) are seeded on filter inserts (Costar transwell polycarbonate or PET filters, 0.4 μm pore size) and cultured (DMEM) for 7 days. Subsequently, the MDR1 expression is boosted by culturing the cells with 5 mM sodium butyrate in full medium for 2 days. Compounds are dissolved in appropriate solvent (like DMSO, 1-20 mM stock solutions). Stock solutions are diluted with HTP-4 buffer (128.13 mM NaCl, 5.36 mM KCl, 1 mM MgSO4, 1.8 mM CaCl2, 4.17 mM NaHCO3, 1.19 mM Na2HPO4×7H2O, 0.41 mM NaH2PO4xH2O, 15 mM HEPES, 20 mM glucose, 0.25% BSA, pH 7.4) to prepare the transport solutions (0.1-300 μM compound, final DMSO <=0.5%). The transport solution (TL) is applied to the apical or basolateral donor side for measuring A-B or B-A permeability (3 filter replicates), respectively. The receiver side contains the same buffer as the donor side. Samples are collected at the start and end of experiment from the donor and at various time intervals for up to 2 hours also from the receiver side for concentration measurement by HPLC-MS/MS or scintillation counting. Sampled receiver volumes are replaced with fresh receiver solution.

[3] = Metabolic stability in human liver microsomes (Human MST); assay type: in vitro ADME; settings: pooled human liver microsomes, pH 7.6; human liver microsomes 1 mg/mL, 1 μM compound, NADPH 1 mM, 37° C.; read-out: Human MST t1/2
Protocol: Assessment of Metabolic Stability in Human Liver Microsomes (Human MST) The metabolic stability of the compounds according to the invention may be investigated as follows: The metabolic degradation of the test compound is assayed at 37° C. with pooled human liver microsomes. The final incubation volume of 100 μL per time point contains TRIS buffer pH 7.6 at room temperature (0.1 M), MgCl2 (5 mM), microsomal protein (1 mg/mL) and the test compound at a final concentration of 1 μM. Following a short pre-incubation period at 37° C., the reactions are initiated by addition of beta-nicotinamide adenine dinucleotide phosphate, reduced form (NADPH, 1 mM), and terminated by transferring an aliquot into solvent after different time points. After centrifugation (10000 g, 5 min), an aliquot of the supernatant is assayed by LCMS/MS for the amount of parent compound. The half-life (t½) is determined by the slope of the semi-logarithmic plot of the concentration-time profile.

[4] = target: T2, human GABAA α5β3γ2s receptor (Homo sapiens, UniProt P18507+P31644); experiment: Assay A: in vitro inhibition of 3H-flumazenil binding, HEK cells expressing human GABAA α5β3γ2s receptor; settings: 3H-flumazenil 1 nM, HEK-293 membranes, 40 min at 2° C.; Ki from IC50 by Cheng and Prusoff
T2 sequence (P18507 1-475): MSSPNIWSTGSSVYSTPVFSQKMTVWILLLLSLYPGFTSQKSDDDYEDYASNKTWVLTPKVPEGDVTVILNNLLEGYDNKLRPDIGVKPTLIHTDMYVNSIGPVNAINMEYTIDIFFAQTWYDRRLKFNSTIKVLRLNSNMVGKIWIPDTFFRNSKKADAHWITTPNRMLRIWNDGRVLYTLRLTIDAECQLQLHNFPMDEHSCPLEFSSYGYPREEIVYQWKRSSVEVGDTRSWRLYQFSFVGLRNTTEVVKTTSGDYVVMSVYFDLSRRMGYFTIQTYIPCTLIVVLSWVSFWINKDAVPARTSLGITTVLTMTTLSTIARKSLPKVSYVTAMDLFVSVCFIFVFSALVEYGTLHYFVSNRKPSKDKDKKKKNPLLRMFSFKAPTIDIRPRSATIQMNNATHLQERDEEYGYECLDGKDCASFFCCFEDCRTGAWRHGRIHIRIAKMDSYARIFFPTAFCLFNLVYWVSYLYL
T2 sequence (P31644 1-462): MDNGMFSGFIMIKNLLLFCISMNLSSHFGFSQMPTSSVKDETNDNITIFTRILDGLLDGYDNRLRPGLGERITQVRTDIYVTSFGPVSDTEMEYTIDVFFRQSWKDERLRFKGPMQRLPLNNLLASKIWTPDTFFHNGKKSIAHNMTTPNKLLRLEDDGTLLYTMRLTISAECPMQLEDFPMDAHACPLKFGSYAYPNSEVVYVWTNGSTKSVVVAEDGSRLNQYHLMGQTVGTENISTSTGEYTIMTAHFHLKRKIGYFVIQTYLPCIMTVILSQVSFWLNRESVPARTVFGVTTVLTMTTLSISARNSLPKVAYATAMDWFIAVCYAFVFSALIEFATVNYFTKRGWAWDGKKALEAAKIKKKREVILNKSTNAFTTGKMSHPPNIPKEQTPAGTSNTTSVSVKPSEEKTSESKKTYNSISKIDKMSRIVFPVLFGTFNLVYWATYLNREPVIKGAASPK
Protocol: HEK-293 cell lines with stable expression of recombinant human GABAA α5β3γ2s receptors (plasmid H46/E9/B10) are seeded in T175 polystyrene flasks or roller bottles (1700 cm^2, Fisher Scientific CCI-431191), and cultured (37 C, 5% CO˜) in Dulbecco's Modified Eagle Medium (DMEM) with GlutaMAX™ supplemented with 10% fetal bovine serum and one or both of the following antibiotics: hygromycin B ([…]; γ2 subunit) or G418 (0.5 mg/ml; […]).
When the cultures reach confluency, the DMEM is removed and the cells are washed (10 ml for T175 flasks; 50 ml for roller bottles) once in Dulbecco's Phosphate Buffered Saline (DPBS). Following addition of DPBS to the cultures (10 ml for T175 flasks; 100 ml for roller bottles) for approximately 5 min cells are easily detached from the surface by shaking or tapping the flask gently. The cell suspension is transferred to Falcon tubes and centrifuged at 23,500×g for 10 min at 2° C. The pellet is washed once in 15 ml Tris-citrate buffer (50 mM, pH 7.1) using an Ultra-Turrax homogenizer and centrifuged at 2° C. for 10 min at 27,000×g. The washed pellet is re-suspended in 15 ml Tris-citrate buffer and frozen at −80° C. until the day of the binding experiment.
On the day of the experiment the cell membrane preparation is thawed and centrifuged at 2° C. for 10 min at 27,000×g. The pellet is re-suspended, using an Ultra-Turrax homogenizer in Tris-citrate buffer, to 15-50 µg protein per assay and then used for binding assays.
Non-specific binding is determined using clonazepam (1 μM, final concentration).
All dilutions of test compounds and incubation of assay are performed in glass vials/96-vial plates. […] Compounds are dissolved in 100% DMSO (10 mM stock), diluted in 48% ethanol-water, and tested in triplicate in serial 1:3 or 1:10 dilutions. When screening large numbers of compounds only one concentration of each compound is tested in single wells. Reference compounds are not included routinely, but for each experiment performed total and nonspecific binding is compared to data obtained during validation of the assay.
Binding is either terminated by rapid filtration onto
1) Whatman GF/C glass fibre filters using a Brandel Cell harvester, followed by 5 washes with 1 ml ice-cold buffer or onto 2) UniFilter GF/C glass fibre filter plates using a Tomtec cell harvester, followed by washing with approximately 5 ml ice-cold buffer.
The amount of radioactivity on the filters is determined by conventional liquid scintillation counting using a
1) Tri-Garb™ counter (PerkinElmer Life and Analytical Sciences) for separate large filters or
2) Topcount™ counter (PerkinElmer Life and Analytical Sciences) for 96-well filter plates. Specific binding is total binding minus non-specific binding.
For screening purposes n is set to 1. The IC50 value is calculated from the concentration response curves by the non-linear regression method using the curve-fitting program GraphPad Prism. […]

Compound | Assay B: GABAA α5β3γ2 Emax vs GABA [1] [%] | EC50 [1] [nM] | efflux ratio [2] | Papp A→B [2] [×10⁻⁶ cm/s] | half-life at 1 μM [3] [h] | Ki [4] [nM]
Cc1nnn(-c2ccc(C(F)F)cc2)c1COc1ccc(-c2cnccn2)nn1 [Example 13] | -23 | 9 | 0.5 | 69 | > 2.17 | 
Cc1nnn(-c2ccc(C(F)F)cc2)c1COc1ccc(-n2cncn2)nn1 [Example 28, 3-({1-[4-(difluoromethyl)phenyl]-4-methyl-1H-1,2,3-triazol-5-yl}methoxy)-6-(1H-1,2,4-triazol-1-yl)pyridazine] | -25 | 5.5 | 0.6 | 68.7 | > 2.17 | 
Cc1nnn(-c2ccc(C(F)F)cc2)c1COc1ccc(-n2nc(C#N)cc2C)nn1 [Example 34] | -4.3 |  |  |  |  | 0.035
Cc1nnn(-c2ccc(C(F)F)cc2)c1COc1ccc(-n2cnc(C#N)c2)nn1 [Example 1, 1-[6-({1-[4-(difluoromethyl)phenyl]-4-methyl-1H-1,2,3-triazol-5-yl}methoxy)pyridazin-3-yl]-1H-imidazole-4-carbonitrile] | -23.3 | 1.5 | 2.6 | 18.1 | > 2.17 | 
Cc1nnn(-c2ccc(C(F)F)cc2)c1COc1ccc(-c2ccn[nH]2)nn1 [Example 10] | -18 | 5.8 | 1.7 | 22.4 | > 2.17 | 
Cc1nnn(-c2ccc(C(F)F)cc2)c1COc1ccc(-n2cnc([S+](C)[O-])c2)nn1 (stereo not shown) [Example 23] | -12 | 2 |  |  |  | 0.27
Cc1nnn(-c2ccc(C(F)F)cc2)c1COc1ccc(-n2cnc(C(=O)N(C)C)c2)nn1 [Example 16] | 0 |  |  |  | > 2.17 | 0.16
